According to patent US10519177B2, “Heterocyclic compounds and uses thereof” (Plexxikon Inc., priority 2013, dated 2019):

Tested on: MV-4-11 cells
Experiment: Oncology cell growth assay MV-4-11 (CellTiter Glo)
Type: cell-based
Conditions: Homo sapiens, MV4-11, 72 h; MV-4-11, 3d growth; read-out: Cell activity (IC50 μM) MV-4-11 3d-Growth
Description: Published bromodomain inhibitors JQ1 and iBET 151 have shown activity in variety of cancer cells such leukemia and lymphoma, multiple myeloma cells, NUT midline carcinoma and glioblastoma cells (Dawson M A et al. 2011; Delmore J E 2011; Chen Z et al. 2013; Filippakopoulos P et al. 2010; Mertz J A et al. 2011; Ott C J et al. 2012). In this study, we test compounds in different cancer cell lines. MV-4-11 and MOLM-13 are AML cell lines harboring a MLL-AF4 and MLL-AF9 translocation, respectively. MM.1S is a multiple myeloma cell line. SK-N-AS, IMR-32 and SK-N-BE(2) are neuroblastoma cell lines. IMR-32 and SK-N-BE(2) cell lines harbor MYCN amplifications.
MV-4-11, MM.1S, IMR-32, SK-N-AS and SK-N-BE(2) were obtained from ATCC (IL, USA) and MOLM-13 were purchased from DSMZ (Braunschweig, German). Cells are cultured as recommended by their sources. For growth inhibition studies 3000 cells are seeded in wells of a 96-well plate in 75 μL of culture media. After several hours, growth media containing compounds of formula (I) are added to the wells. Compound at a maximal concentration of 5 mM was serially diluted 1:3 for a total of 8 point titration with DMSO as a control. A 1 μL aliquot of each dilution point is added to 249 μL growth media and 75 μL is added to each well containing cells, providing 10 μM compound at the maximum concentration point. The final concentration of DMSO in all wells is 0.2%. Cells are incubated for 72 hours, and 25 μL of CellTiter Glo Reagent (Promega GA, USA) is added to each well. Plates are shaken for approximately 10 minutes and chemiluminescent signal is read on Tecan microplate reader. The measured luminescence correlates directly with cell number.
All data is normalized to the mean of eight DMSO high control wells on each plate. A four parameter curve fit of the following formula was then applied: Y=a+(b−a)/(1+(x/c)^d) Where ‘a’ is the minimum, ‘b’ is the maximum, ‘c’ is the pIC50 and ‘d’ is the Hill slope. […] Myc Reporter Assay

IC50 [µM]	Compound
< 1	Cc1noc(C)c1-c1cnc2c(I)cn(Cc3ccccc3C#N)c2c1 [P-0921, 2-[[6-(3,5-dimethylisoxazol-4-yl)-3-iodo-pyrrolo[3,2-b]pyridin-1-yl]methyl]benzonitrile]
1 to 10	Cc1noc(C)c1-c1ccc2c(I)cn([C@@H](C)c3ccccn3)c2c1 [P-1051, 4-[3-iodo-1-[(1S)-1-(2-pyridyl)ethyl]indol-6-yl]-3,5-dimethyl-isoxazole]
1 to 10	COC(=O)c1ccc(-c2c[nH]c3cc(-c4c(C)noc4C)cnc23)cc1 [P-1033, methyl 4-[6-(3,5-dimethylisoxazol-4-yl)-1H-pyrrolo[3,2-b]pyridin-3-yl]benzoate]

Tested on: bromodomain
Experiment: at least one of the bromodomain cell assays of Example 57
Type: cell-based
Conditions: at least one of the bromodomain cell assays described in Example 57; read-out: IC50 in at least one of the bromodomain cell assays

IC50 [µM]	Compound
< 10	CCOC(=O)c1ccc(-c2cn([C@H](c3ccccc3)c3ccccn3)c3cc(-c4c(C)noc4C)cnc23)cc1 [P-0727, ethyl 4-[6-(3,5-dimethylisoxazol-4-yl)-1-[(R)-phenyl(2-pyridyl)methyl]pyrrolo[3,2-b]pyridin-3-yl]benzoate]
< 10	Cc1ccc(-c2cn([C@H](c3ccccc3)c3ccccn3)c3cc(-c4c(C)noc4C)cnc23)cc1 [P-0725, 3,5-dimethyl-4-[1-[(R)-phenyl(2-pyridyl)methyl]-3-(p-tolyl)pyrrolo[3,2-b]pyridin-6-yl]isoxazole]
< 10	Cc1nnn(C)c1-c1cnc2c(-c3ccc(C(C)(C)C)cc3)cn(CC3CCC(F)(F)CC3)c2c1 [P-0810, 3-(4-tert-butylphenyl)-1-[(4,4-difluorocyclohexyl)methyl]-6-(3,5-dimethyltriazol-4-yl)pyrrolo[3,2-b]pyridine]
< 10	CCOC(=O)c1ccc(-c2cn(CC3CCCCC3)c3cc(-c4c(C)noc4C)cnc23)cc1 [P-0707, ethyl 4-[1-(cyclohexylmethyl)-6-(3,5-dimethylisoxazol-4-yl)pyrrolo[3,2-b]pyridin-3-yl]benzoate]
< 10	Cc1noc(C)c1-c1cnc2c(-c3ccc(C#N)nc3)cn([C@@H](c3ccccc3)c3ccccn3)c2c1 [P-0720, 5-[6-(3,5-dimethylisoxazol-4-yl)-1-[(S)-phenyl(2-pyridyl)methyl]pyrrolo[3,2-b]pyridin-3-yl]pyridine-2-carbonitrile]
< 10	Cc1noc(C)c1-c1ccc2c(-c3ccc(CO)cc3)cn([C@H](c3ccccc3)c3ccccn3)c2c1 [P-0757, [4-[6-(3,5-dimethylisoxazol-4-yl)-1-[(R)-phenyl(2-pyridyl)methyl]indol-3-yl]phenyl]methanol]
< 10	Cc1noc(C)c1-c1cnc2c(-c3ccc(C(C)(C)C)cc3)cn(Cc3ccccn3)c2c1 [P-0804, 4-[3-(4-tert-butylphenyl)-1-(2-pyridylmethyl)pyrrolo[3,2-b]pyridin-6-yl]-3,5-dimethyl-isoxazole]
< 10	CCOC(=O)c1ccc(-c2cn([C@@H](c3ccccc3)c3ccccn3)c3cc(-c4c(C)noc4C)ccc23)cc1 [P-0752, ethyl 4-[6-(3,5-dimethylisoxazol-4-yl)-1-[(S)-phenyl(2-pyridyl)methyl]indol-3-yl]benzoate]
< 10	Cc1noc(C)c1-c1cnc2c(-c3ccc(B(O)O)cc3)cn([C@@H](c3ccccc3)c3ccccn3)c2c1 [P-0718, [4-[6-(3,5-dimethylisoxazol-4-yl)-1-[(S)-phenyl(2-pyridyl)methyl]pyrrolo[3,2-b]pyridin-3-yl]phenyl]boronic acid]
< 10	Cc1noc(C)c1-c1cnc2c(-c3ccc(C(=O)O)cc3)cn([C@H](c3ccccn3)C3CCCC3)c2c1 [P-0819, 4-[1-[(S)-cyclopentyl(2-pyridyl)methyl]-6-(3,5-dimethylisoxazol-4-yl)pyrrolo[3,2-b]pyridin-3-yl]benzoic acid]
< 10	Cc1cc(-c2cnc3c(-c4ccc(C(=O)OC(C)(C)C)cc4)cn(CC4CCC(F)(F)CC4)c3c2)cn(C)c1=O [P-0612, tert-butyl 4-[1-[(4,4-difluorocyclohexyl)methyl]-6-(1,5-dimethyl-6-oxo-3-pyridyl)pyrrolo[3,2-b]pyridin-3-yl]benzoate]
< 10	COC(=O)c1ccc(-c2cn(CC3CCCCC3)c3cc(-c4c(C)noc4C)cnc23)cc1 [P-0706, methyl 4-[1-(cyclohexylmethyl)-6-(3,5-dimethylisoxazol-4-yl)pyrrolo[3,2-b]pyridin-3-yl]benzoate]
< 10	Cc1noc(C)c1-c1cnc2c(-c3ccc4c(c3)CCOC4=O)cn(CC3CCC(F)(F)CC3)c2c1 [P-0798, 6-[1-[(4,4-difluorocyclohexyl)methyl]-6-(3,5-dimethylisoxazol-4-yl)pyrrolo[3,2-b]pyridin-3-yl]isochroman-1-one]
< 10	Cc1noc(C)c1-c1ccc2c(-c3ccc(CO)cc3)cn([C@@H](c3ccccc3)c3ccccn3)c2c1 [P-0753, [4-[6-(3,5-dimethylisoxazol-4-yl)-1-[(S)-phenyl(2-pyridyl)methyl]indol-3-yl]phenyl]methanol]
< 10	Cc1noc(C)c1-c1cnc2c(F)cn([C@@H](c3ccccc3)c3ccccn3)c2c1 [P-0712, 4-[3-fluoro-1-[(S)-phenyl(2-pyridyl)methyl]pyrrolo[3,2-b]pyridin-6-yl]-3,5-dimethyl-isoxazole]
< 10	Cc1noc(C)c1-c1cnc2c(-c3ccc([N+](=O)[O-])nc3)cn([C@@H](c3ccccc3)c3ccccn3)c2c1 [P-0719, 3,5-dimethyl-4-[3-(6-nitro-3-pyridyl)-1-[(S)-phenyl(2-pyridyl)methyl]pyrrolo[3,2-b]pyridin-6-yl]isoxazole]
< 10	Cc1noc(C)c1-c1cnc2c(c1)c(C(c1ccccn1)c1ccccn1)cn2C(F)F [P-0734, 4-[3-[bis(2-pyridyl)methyl]-1-(difluoromethyl)pyrrolo[2,3-b]pyridin-5-yl]-3,5-dimethyl-isoxazole]
< 10	Cc1noc(C)c1-c1cnc2c(-c3ccc(C4(C(=O)O)CC4)cc3)cn(CC3(C)CCCCC3)c2c1 [P-0782, 1-[4-[6-(3,5-dimethylisoxazol-4-yl)-1-[(1-methylcyclohexyl)methyl]pyrrolo[3,2-b]pyridin-3-yl]phenyl]cyclopropanecarboxylic acid]
< 10	Cc1noc(C)c1-c1cnc2c(-c3ccc4c(c3)COC4=O)cn(CC3CCCCC3)c2c1 [P-0797, 5-[1-(cyclohexylmethyl)-6-(3,5-dimethylisoxazol-4-yl)pyrrolo[3,2-b]pyridin-3-yl]-3H-isobenzofuran-1-one]
< 10	Cc1noc(C)c1-c1cnc2c(-c3ccc(C(=O)OC(C)C)cc3)cn([C@H](c3ccccc3)c3ccccn3)c2c1 [P-0728, isopropyl 4-[6-(3,5-dimethylisoxazol-4-yl)-1-[(R)-phenyl(2-pyridyl)methyl]pyrrolo[3,2-b]pyridin-3-yl]benzoate]
< 10	Cc1noc(C)c1-c1cnc2c(-c3ccc4c(c3)COC4=O)cn(CC3CCC(F)(F)CC3)c2c1 [P-0796, 5-[1-[(4,4-difluorocyclohexyl)methyl]-6-(3,5-dimethylisoxazol-4-yl)pyrrolo[3,2-b]pyridin-3-yl]-3H-isobenzofuran-1-one]
< 10	[2H]C([2H])([2H])c1ccc(-c2cn([C@@H](c3ccccc3)c3ccccn3)c3cc(-c4c(C)noc4C)cnc23)cc1 [P-0786, 3,5-dimethyl-4-[1-[(S)-phenyl(2-pyridyl)methyl]-3-[4-(trideuteriomethyl)phenyl]pyrrolo[3,2-b]pyridin-6-yl]isoxazole]
< 10	COC(=O)c1ccc(-c2cn(C(c3ccccc3)c3ccccn3)c3cc(-c4c(C)noc4C)cnc23)cc1 (stereo not drawn) [P-0610, methyl 4-[6-(3,5-dimethylisoxazol-4-yl)-1-[phenyl(2-pyridyl)methyl]pyrrolo[3,2-b]pyridin-3-yl]benzoate]
< 10	Cc1noc(C)c1-c1ccc2c(-c3ccc(C(=O)O)cc3)cn(CC3CCC(F)(F)CC3)c2c1 [P-0745, 4-[1-[(4,4-difluorocyclohexyl)methyl]-6-(3,5-dimethylisoxazol-4-yl)indol-3-yl]benzoic acid]
< 10	Cc1noc(C)c1-c1cnc2c(-c3ccc(C(=O)O)cc3)cn(C(c3ccccc3)c3ccccc3)c2c1 [P-0620, 4-[1-benzhydryl-6-(3,5-dimethylisoxazol-4-yl)pyrrolo[3,2-b]pyridin-3-yl]benzoic acid]
< 10	C[C@@H](c1ccccn1)n1cc(-c2ccc(C(=O)O)cc2)c2ncc(-c3cc(Cl)c(=O)n(C)c3)cc21 [P-0766, 4-[6-(5-chloro-1-methyl-6-oxo-3-pyridyl)-1-[(1S)-1-(2-pyridyl)ethyl]pyrrolo[3,2-b]pyridin-3-yl]benzoic acid]
< 10	Cc1noc(C)c1-c1cnc2c(-c3ccc(CC(=O)O)cc3)cn(CC3(C)CCCCC3)c2c1 [P-0781, 2-[4-[6-(3,5-dimethylisoxazol-4-yl)-1-[(1-methylcyclohexyl)methyl]pyrrolo[3,2-b]pyridin-3-yl]phenyl]acetic acid]
